Results reported in ChEMBL document CHEMBL3885861, “Open TG-GATES”.

Species: Rattus norvegicus
Assay: Open TG-GATES - Regimen: Single
Format: toxicity, organism-based, Sprague-Dawley
Parameters: regimen Single, gender Male, age 6 weeks
Details: in vivo, po, route gavage; for TP / gamma-GTP / ALP / ALT / AST / BUN / CRE / Ca / Cl / DBIL / GLC / IP / K / LDH / Na / PL / RALB / TBIL / TC / TG: tissue Plasma; for APTT / Bas / Eos / Fbg / Hb / Ht / Lym / MCH / MCHC / MCV / Mono / Neu / PT / Plat / RBC / Ret / WBC: tissue Blood; for KIDNEY_L / KIDNEY_R / KIDNEY_TOTAL: tissue Kidney; for LIVER: tissue Liver
[1] = 300 mg/kg, 24 h, dose level Low
[2] = 1000 mg/kg, 3 h, dose level Middle
[3] = 1000 mg/kg, 6 h, dose level Middle
[4] = 1000 mg/kg, 9 h, dose level Middle
[5] = 1000 mg/kg, 24 h, dose level Middle
[6] = 2000 mg/kg, 3 h, dose level High
[7] = 2000 mg/kg, 6 h, dose level High
[8] = 2000 mg/kg, 9 h, dose level High
[9] = 2000 mg/kg, 24 h, dose level High

CCOc1ccc(NC(C)=O)cc1 [PHENACETIN]
TP [1]: 5.7 g/dL
gamma-GTP [1]: 1.2 IU/L
TERMINAL_BW [2]: 211.4 g
APTT [2]: 16.8 s
Bas [2]: 0%
Eos [2]: 1%
Fbg [2]: 302.8 mg/dL
Hb [2]: 13.4 g/dL
Ht [2]: 39.6%
Lym [2]: 75.6%
MCH [2]: 20.9 pg
MCHC [2]: 33.9%
MCV [2]: 61.6 fL
Mono [2]: 2.8%
Neu [2]: 20.4%
PT [2]: 13.9 s
Plat [2]: 119.7 x10_4/uL
RBC [2]: 643.4 x10_4/ul
Ret [2]: 8.8%
WBC [2]: 62.5 x10_2/uL
KIDNEY_L [2]: 0.9 g
KIDNEY_R [2]: 0.9 g
KIDNEY_TOTAL [2]: 1.8 g
LIVER [2]: 9.2 g
ALP [2]: 1732.2 IU/L
ALT [2]: 35 IU/L
AST [2]: 69 IU/L
BUN [2]: 9.4 mg/dL
CRE [2]: 0.1 mg/dL
Ca [2]: 11 mg/dL
Cl [2]: 100.4 meq/L
DBIL [2]: 0 mg/dL
GLC [2]: 232 mg/dL
IP [2]: 10.8 mg/dL
K [2]: 3.6 meq/L
LDH [2]: 64.8 IU/L
Na [2]: 139.8 meq/L
PL [2]: 150.8 mg/dL
RALB [2]: 2.6 g/dL
TBIL [2]: 0.032 mg/dL
TC [2]: 87 mg/dL
TG [2]: 50.6 mg/dL
TP [2]: 5.5 g/dL
gamma-GTP [2]: 1.4 IU/L
TERMINAL_BW [3]: 206.1 g
APTT [3]: 18 s
Bas [3]: 0%
Eos [3]: 0.2%
Fbg [3]: 311.4 mg/dL
Hb [3]: 13.9 g/dL
Ht [3]: 40.7%
Lym [3]: 73.2%
MCH [3]: 21.1 pg
MCHC [3]: 34.2%
MCV [3]: 61.6 fL
Mono [3]: 2%
Neu [3]: 24.2%
PT [3]: 14.2 s
Plat [3]: 124.9 x10_4/uL
RBC [3]: 661 x10_4/ul
Ret [3]: 9%
WBC [3]: 54.6 x10_2/uL
KIDNEY_L [3]: 0.9 g
KIDNEY_R [3]: 0.9 g
KIDNEY_TOTAL [3]: 1.9 g
LIVER [3]: 8.8 g
ALP [3]: 1388 IU/L
ALT [3]: 40.4 IU/L
AST [3]: 76 IU/L
BUN [3]: 11.2 mg/dL
CRE [3]: 0.1 mg/dL
Ca [3]: 10.9 mg/dL
Cl [3]: 102.6 meq/L
DBIL [3]: 0 mg/dL
GLC [3]: 188.4 mg/dL
IP [3]: 9.8 mg/dL
K [3]: 4 meq/L
LDH [3]: 73.6 IU/L
Na [3]: 139.2 meq/L
PL [3]: 151.8 mg/dL
RALB [3]: 2.6 g/dL
TBIL [3]: 0.04 mg/dL
TC [3]: 94.2 mg/dL
TG [3]: 23.4 mg/dL
TP [3]: 5.6 g/dL
gamma-GTP [3]: 1.2 IU/L
TERMINAL_BW [4]: 205.3 g
APTT [4]: 17.2 s
Bas [4]: 0%
Eos [4]: 1%
Fbg [4]: 302.6 mg/dL
Hb [4]: 14 g/dL
Ht [4]: 40.8%
Lym [4]: 76.2%
MCH [4]: 21.1 pg
MCHC [4]: 34.3%
MCV [4]: 61.4 fL
Mono [4]: 3.4%
Neu [4]: 18.6%
PT [4]: 14.1 s
Plat [4]: 120 x10_4/uL
RBC [4]: 664.6 x10_4/ul
Ret [4]: 8.5%
WBC [4]: 49.5 x10_2/uL
KIDNEY_L [4]: 0.9 g
KIDNEY_R [4]: 0.9 g
KIDNEY_TOTAL [4]: 1.9 g
LIVER [4]: 8.8 g
ALP [4]: 1337.2 IU/L
ALT [4]: 38.6 IU/L
AST [4]: 70.2 IU/L
CRE [4]: 0.1 mg/dL
Ca [4]: 10.9 mg/dL
Cl [4]: 101.6 meq/L
DBIL [4]: 0.006 mg/dL
GLC [4]: 205.2 mg/dL
IP [4]: 9 mg/dL
K [4]: 3.9 meq/L
LDH [4]: 82 IU/L
PL [4]: 160.6 mg/dL
RALB [4]: 2.6 g/dL
TBIL [4]: 0.046 mg/dL
TC [4]: 95.2 mg/dL
TG [4]: 32.6 mg/dL
TP [4]: 5.6 g/dL
gamma-GTP [4]: 1.2 IU/L
TERMINAL_BW [5]: 204.2 g
APTT [5]: 17 s
Bas [5]: 0%
Eos [5]: 1%
Fbg [5]: 291.6 mg/dL
Hb [5]: 13.4 g/dL
Ht [5]: 40.1%
Lym [5]: 69%
MCH [5]: 20.5 pg
MCHC [5]: 33.5%
MCV [5]: 61.2 fL
Mono [5]: 3.2%
Neu [5]: 26.2%
Plat [5]: 127.8 x10_4/uL
RBC [5]: 654.4 x10_4/ul
Ret [5]: 7.5%
WBC [5]: 82.6 x10_2/uL
KIDNEY_L [5]: 1 g
KIDNEY_R [5]: 1 g
KIDNEY_TOTAL [5]: 1.9 g
LIVER [5]: 8.7 g
ALP [5]: 1673.4 IU/L
ALT [5]: 53.6 IU/L
AST [5]: 118.8 IU/L
BUN [5]: 13.6 mg/dL
CRE [5]: 0.2 mg/dL
Ca [5]: 10.9 mg/dL
Cl [5]: 105 meq/L
DBIL [5]: 0.038 mg/dL
GLC [5]: 167 mg/dL
IP [5]: 9.2 mg/dL
K [5]: 4.6 meq/L
LDH [5]: 202.2 IU/L
Na [5]: 141.6 meq/L
PL [5]: 166.6 mg/dL
RALB [5]: 2.6 g/dL
TBIL [5]: 0.052 mg/dL
TC [5]: 97.2 mg/dL
TG [5]: 92.4 mg/dL
TP [5]: 5.6 g/dL
gamma-GTP [5]: 1.2 IU/L
TERMINAL_BW [6]: 214.4 g
APTT [6]: 17.5 s
Bas [6]: 0%
Eos [6]: 1%
Fbg [6]: 307.2 mg/dL
Hb [6]: 13.9 g/dL
Ht [6]: 41%
Lym [6]: 76.8%
MCH [6]: 21.2 pg
MCHC [6]: 33.8%
Mono [6]: 2.8%
Neu [6]: 19%
PT [6]: 14.2 s
Plat [6]: 115.4 x10_4/uL
RBC [6]: 652.4 x10_4/ul
Ret [6]: 9%
WBC [6]: 60.2 x10_2/uL
KIDNEY_L [6]: 0.9 g
KIDNEY_R [6]: 1 g
KIDNEY_TOTAL [6]: 1.9 g
LIVER [6]: 9.2 g
ALP [6]: 1540.4 IU/L
ALT [6]: 39.8 IU/L
AST [6]: 70.4 IU/L
BUN [6]: 10.2 mg/dL
CRE [6]: 0.1 mg/dL
Ca [6]: 11 mg/dL
Cl [6]: 99.4 meq/L
DBIL [6]: 0 mg/dL
GLC [6]: 240.4 mg/dL
K [6]: 3.7 meq/L
LDH [6]: 78 IU/L
Na [6]: 139 meq/L
RALB [6]: 2.6 g/dL
TBIL [6]: 0.034 mg/dL
TG [6]: 47.4 mg/dL
TP [6]: 5.5 g/dL
gamma-GTP [6]: 1 IU/L
TERMINAL_BW [7]: 209.5 g
Bas [7]: 0%
Eos [7]: 0.4%
Fbg [7]: 308.8 mg/dL
Ht [7]: 40.1%
Lym [7]: 74.2%
MCH [7]: 21.2 pg
MCV [7]: 61.4 fL
Mono [7]: 2.2%
PT [7]: 14.2 s
Plat [7]: 115.7 x10_4/uL
RBC [7]: 653.8 x10_4/ul
Ret [7]: 8.4%
WBC [7]: 47.7 x10_2/uL
KIDNEY_L [7]: 0.9 g
KIDNEY_R [7]: 0.9 g
KIDNEY_TOTAL [7]: 1.8 g
LIVER [7]: 9.1 g
ALP [7]: 1249 IU/L
ALT [7]: 45.6 IU/L
AST [7]: 84 IU/L
BUN [7]: 10.2 mg/dL
CRE [7]: 0.1 mg/dL
Ca [7]: 11.1 mg/dL
Cl [7]: 103 meq/L
DBIL [7]: 0 mg/dL
GLC [7]: 192.2 mg/dL
IP [7]: 9.9 mg/dL
K [7]: 3.8 meq/L
LDH [7]: 93.2 IU/L
Na [7]: 139.2 meq/L
PL [7]: 136.4 mg/dL
RALB [7]: 2.7 g/dL
TBIL [7]: 0.032 mg/dL
TC [7]: 83.8 mg/dL
TP [7]: 5.6 g/dL
gamma-GTP [7]: 1.2 IU/L
TERMINAL_BW [8]: 210.8 g
APTT [8]: 16.8 s
Bas [8]: 0%
Eos [8]: 0.4%
Fbg [8]: 288.4 mg/dL
Hb [8]: 13.3 g/dL
Ht [8]: 38.1%
Lym [8]: 73.6%
MCH [8]: 20.9 pg
MCHC [8]: 35%
MCV [8]: 59.8 fL
Mono [8]: 3.2%
Neu [8]: 22%
PT [8]: 14.3 s
Plat [8]: 123.9 x10_4/uL
RBC [8]: 638.6 x10_4/ul
Ret [8]: 8.7%
WBC [8]: 54.6 x10_2/uL
KIDNEY_L [8]: 0.9 g
KIDNEY_R [8]: 0.9 g
KIDNEY_TOTAL [8]: 1.8 g
LIVER [8]: 9 g
ALP [8]: 1259 IU/L
ALT [8]: 40.6 IU/L
AST [8]: 70.8 IU/L
BUN [8]: 10.2 mg/dL
CRE [8]: 0.1 mg/dL
Ca [8]: 10.9 mg/dL
Cl [8]: 101.2 meq/L
DBIL [8]: 0 mg/dL
GLC [8]: 205.6 mg/dL
IP [8]: 9.1 mg/dL
K [8]: 3.6 meq/L
LDH [8]: 66.8 IU/L
Na [8]: 137.6 meq/L
PL [8]: 163 mg/dL
RALB [8]: 2.5 g/dL
TBIL [8]: 0.034 mg/dL
TC [8]: 99.6 mg/dL
TG [8]: 18 mg/dL
TP [8]: 5.5 g/dL
gamma-GTP [8]: 1.6 IU/L
TERMINAL_BW [9]: 193.2 g
APTT [9]: 18.2 s
Bas [9]: 0.6%
Eos [9]: 0.6%
Fbg [9]: 273.4 mg/dL
Hb [9]: 14.2 g/dL
Ht [9]: 41.5%
Lym [9]: 75%
MCH [9]: 20.8 pg
MCHC [9]: 34.2%
MCV [9]: 60.7 fL
Mono [9]: 2.6%
Neu [9]: 20.8%
PT [9]: 14.5 s
Plat [9]: 138.6 x10_4/uL
RBC [9]: 684.2 x10_4/ul
Ret [9]: 7.5%
WBC [9]: 70 x10_2/uL
KIDNEY_L [9]: 0.9 g
KIDNEY_R [9]: 1 g
KIDNEY_TOTAL [9]: 1.9 g
LIVER [9]: 7.5 g
ALP [9]: 1341.4 IU/L
ALT [9]: 44.8 IU/L
AST [9]: 115 IU/L
BUN [9]: 12 mg/dL
CRE [9]: 0.2 mg/dL
Ca [9]: 10.7 mg/dL
Cl [9]: 104.2 meq/L
DBIL [9]: 0.024 mg/dL
GLC [9]: 171.2 mg/dL
IP [9]: 9.6 mg/dL
K [9]: 4.3 meq/L
LDH [9]: 206 IU/L
Na [9]: 140.8 meq/L
PL [9]: 150.6 mg/dL
RALB [9]: 2.7 g/dL
TBIL [9]: 0.046 mg/dL
TC [9]: 90.4 mg/dL
TG [9]: 52.6 mg/dL
TP [9]: 5.7 g/dL
gamma-GTP [9]: 1 IU/L
